From patent publication US9134309B2, “Polypeptide display libraries and methods of making and using thereof” (The Regents of the University of California, priority 2003, dated 2015)

Biological target: T1, streptavidin (Streptomyces avidinii, UniProt P22629)
T1 construct: purchased Molecular Probes (Eugene, Oreg.)
Experiment: dissociation of SA-1 peptide grafted into YFP from streptavidin coated beads, flow cytometry
Format: binding
Conditions: SA-1 inserted into YFP after Y145, soluble fusion protein, 1 μM biotin
Protocol: See Baird, G. S. et al. (1999) PNAS USA 96(20):11241-11246, which is herein incorporated by reference. […] See Bessette, P. H., et al. (1999) PNAS USA 96(24):13703-13708, which is herein incorporated by reference. […] Using flow cytometry, the dissociation rate constant of the steptavidin binding fluorescent protein was determined to be 0.02 s^−1.
The soluble protein was isolated using B-PER II bacterial protein extraction reagent (Pierce Biotechnology, Rockford, Ill.) following the manufacturer's protocol. About 10^7 streptavidin coated magnetic beads (Dynal Inc., Brown Deer, Wis.) were added to 40 μl of cell lysate and equilibrated at room temperature for 20 minutes. The beads were washed once in 2 ml of PBS; biotin was added to a final concentration of 1 μM, and immediately analyzed by flow cytometry as above. Lysate from a strain expressing YFP with a T7•tag insertion at the same location was used as a negative control.

T1 sequence (P22629 25-183): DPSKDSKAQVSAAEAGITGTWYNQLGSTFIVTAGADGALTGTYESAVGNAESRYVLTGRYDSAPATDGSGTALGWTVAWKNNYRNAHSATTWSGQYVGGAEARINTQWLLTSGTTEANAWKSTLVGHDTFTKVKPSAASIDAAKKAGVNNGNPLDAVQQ

## RLEICQNVCYYLGTL [SA-1]
  dissociation rate constant: 0.02 s⁻¹
